Data taken from ChEMBL document CHEMBL5357031, “Design and Synthesis of Cytotoxic Water-Soluble Rocaglaol Derivatives against HEL Cells by Inhibiting Fli-1” (J Nat Prod, 2024).
pIC50: −log10 of the molar value. Converted amounts (≈) assume the structure as drawn. Where a name gives a salt, the structure may show the parent alone.

What was measured:
HEL = experiment: Cytotoxicity against HEL cells assessed as cell growth inhibition incubated for 72 hrs by MTT assay; assay type: functional, cell-based, Homo sapiens
SW480 = experiment: Cytotoxicity against human SW480 cells assessed as cell growth inhibition incubated for 72 hrs by MTT assay; assay type: functional, cell-based; conditions: Homo sapiens, SW480, 72 h
MDA-MB-231 [1] = experiment: cells; conditions: Homo sapiens, MDA-MB-231, 72 h
Description: (§1) Cytotoxicity against human MDA-MB-231 cells assessed as cell growth inhibition incubated for 72 hrs by MTT assay

[2] = Solubility of compound in PBS at pH 7.4 at 2 mg measured for 24 hrs by HPLC-UV analysis; assay type: physicochemical
MDA-MB-231 [3] = test system: MDA-MB-231
Description: as §1

| SMILES | pIC50 (HEL; Homo sapiens, HEL, 72 h) | pIC50 (SW480) | pIC50 (MDA-MB-231 [1]) | pIC50 (HEL; hel) | solubility at 24 h [2] | pIC50 (MDA-MB-231 [3]) |
| --- | --- | --- | --- | --- | --- | --- |
| COc1cc(OC)c2c(c1)O[C@@]1(c3ccc(OCCCCN(C)C)cc3)[C@H](c3ccccc3)C[C@@H](O)[C@@]21O (racemic) | < 6.00 | < 6.00 | 6.24 | – | – | – |
| CCCCN(CCCC)Cc1cc([C@@]23Oc4cc(OC)cc(OC)c4[C@]2(O)[C@H](O)C[C@H]3c2ccccc2)ccc1O (racemic) | < 6.00 | < 6.00 | < 6.00 | – | – | – |
| CCN(CC)CCCCCCCCOc1ccc([C@@]23Oc4cc(OC)cc(OC)c4[C@]2(O)[C@H](O)C[C@H]3c2ccccc2)cc1 (racemic) | 6.41 | 6.19 | 6.33 | – | – | – |
| CCCCN(CCCC)Cc1cc([C@@]23Oc4cc(OC)cc(OC)c4[C@]2(O)[C@H](O)C[C@H]3c2ccccc2)ccc1OC (racemic) | < 6.00 | < 6.00 | < 6.00 | – | – | – |
| COc1cc(OC)c2c(c1)O[C@@]1(c3ccc(OCCN4CCCCC4)cc3)[C@H](c3ccccc3)C[C@@H](O)[C@@]21O (racemic) | < 6.00 | < 6.00 | < 6.00 | – | – | – |
| COc1cc(OC)c2c(c1)O[C@@]1(c3ccc(OCCCCCN4CCN(C)CC4)cc3)[C@H](c3ccccc3)C[C@@H](O)[C@@]21O (stereo in doubt; (-)-18o) | – | – | – | 6.92 | – | – |
| COc1cc(OC)c2c(c1)O[C@@]1(c3ccc(OC)c(CN4CCCCC4)c3)[C@H](c3ccccc3)C[C@@H](O)[C@@]21O (racemic) | 6.24 | < 6.00 | < 6.00 | – | – | – |
| COc1cc(OC)c2c(c1)O[C@@]1(c3ccc(OCCCCCCCCN4CCN(C)CC4)cc3)[C@H](c3ccccc3)C[C@@H](O)[C@@]21O (racemic) | 6.34 | 6.16 | 6.35 | – | – | – |
| COc1cccc2c1C(=O)c1c(O)c3c(c(O)c1C2=O)C[C@@](O)(C(=O)CO)C[C@@H]3O[C@H]1C[C@H](N)[C@H](O)[C@H](C)O1 [DOXORUBICIN HYDROCHLORIDE] | 6.62 | 6.92 | 6.30 | – | – | – |
| CCN(CC)Cc1cc([C@@]23Oc4cc(OC)cc(OC)c4[C@]2(O)[C@H](O)C[C@H]3c2ccccc2)ccc1OC (racemic) | 6.92 | 6.37 | < 6.00 | – | – | – |
| CCN(CC)CCCCOc1ccc([C@@]23Oc4cc(OC)cc(OC)c4[C@]2(O)[C@H](O)C[C@H]3c2ccccc2)cc1 (racemic) | < 6.00 | < 6.00 | 6.26 | – | – | – |
| COc1cc(OC)c2c(c1)O[C@@]1(c3ccc(OCCCCCCCCn4cccc4)cc3)[C@H](c3ccccc3)C[C@@H](O)[C@@]21O (racemic) | < 6.00 | < 6.00 | < 6.00 | – | – | – |
| COc1cc(OC)c2c(c1)O[C@@]1(c3ccc(OC)c(CN4CCOCC4)c3)[C@H](c3ccccc3)C[C@@H](O)[C@@]21O (racemic) | 6.85 | < 6.00 | < 6.00 | – | – | – |
| COc1cc(OC)c2c(c1)O[C@@]1(c3ccc(OCCCCCN(C)C)cc3)[C@H](c3ccccc3)C[C@@H](O)[C@@]21O (racemic) | 6.77 | < 6.00 | 6.43 | – | – | – |
| COc1cc(OC)c2c(c1)O[C@@]1(c3ccc(OCCCCN4CCCCC4)cc3)[C@H](c3ccccc3)C[C@@H](O)[C@@]21O (racemic) | 6.34 | < 6.00 | 6.18 | – | – | – |
| COc1cc(OC)c2c(c1)O[C@@]1(c3ccc(OC)c(CN(C)C)c3)[C@H](c3ccccc3)C[C@@H](O)[C@@]21O (racemic) | 6.72 | < 6.00 | < 6.00 | – | – | – |
| COc1cc(OC)c2c(c1)O[C@@]1(c3ccc(OC)c(CN4CCCC4)c3)[C@H](c3ccccc3)C[C@@H](O)[C@@]21O (racemic) | 6.17 | < 6.00 | < 6.00 | – | – | – |
| COc1cc(OC)c2c(c1)O[C@@]1(c3ccc(O)c(CN(C)C)c3)[C@H](c3ccccc3)C[C@@H](O)[C@@]21O (racemic) | < 6.00 | < 6.00 | < 6.00 | – | – | – |
| COc1cc(OC)c2c(c1)O[C@@]1(c3ccc(O)c(CN4CCCC4)c3)[C@H](c3ccccc3)C[C@@H](O)[C@@]21O (racemic) | < 6.00 | < 6.00 | < 6.00 | – | – | – |
| COc1cc(OC)c2c(c1)O[C@@]1(c3ccc(OCCCCN4CCN(C)CC4)cc3)[C@H](c3ccccc3)C[C@@H](O)[C@@]21O (racemic) | 6.42 | 6.19 | 6.66 | – | – | – |

| SMILES | pIC50 (HEL; Homo sapiens, HEL, 72 h) | pIC50 (SW480) | pIC50 (MDA-MB-231 [1]) | pIC50 (HEL; hel) | solubility at 24 h [2] | pIC50 (MDA-MB-231 [3]) |
| --- | --- | --- | --- | --- | --- | --- |
| COc1cc(OC)c2c(c1)O[C@@]1(c3ccc(OCCn4ccnc4)cc3)[C@H](c3ccccc3)C[C@@H](O)[C@@]21O (racemic) | < 6.00 | < 6.00 | < 6.00 | – | – | – |
| COc1cc(OC)c2c(c1)O[C@@]1(c3ccc(O)cc3)[C@H](c3ccccc3)C[C@@H](O)[C@@]21O (racemic) | 6.74 | < 6.00 | 6.46 | – | 50 µg/mL (≈ 0.119 mM) | – |
| COc1cc(OC)c2c(c1)O[C@@]1(c3ccc(OCCCCCCCCN4CCCCC4)cc3)[C@H](c3ccccc3)C[C@@H](O)[C@@]21O (racemic) | 6.62 | < 6.00 | < 6.00 | – | – | – |
| CCN(CC)CCCCCOc1ccc([C@@]23Oc4cc(OC)cc(OC)c4[C@]2(O)[C@H](O)C[C@H]3c2ccccc2)cc1 (racemic) | 6.59 | 6.16 | 6.89 | – | – | – |
| COc1cc(OC)c2c(c1)O[C@@]1(c3ccc(OCCN4CCCC4)cc3)[C@H](c3ccccc3)C[C@@H](O)[C@@]21O (racemic) | < 6.00 | < 6.00 | < 6.00 | – | – | – |
| COc1cc(OC)c2c(c1)O[C@@]1(c3ccc(OCCCCCN4CCCCC4)cc3)[C@H](c3ccccc3)C[C@@H](O)[C@@]21O (racemic) | 6.74 | < 6.00 | 6.72 | – | – | – |
| COc1cc(OC)c2c(c1)O[C@@]1(c3ccc(OCCCCCN4CCN(C)CC4)cc3)[C@H](c3ccccc3)C[C@@H](O)[C@@]21O (stereo in doubt; (+)-18o) | – | – | – | < 6.00 | – | – |
| COc1cc(OC)c2c(c1)O[C@@]1(c3ccc(OCCN4CCN(C)CC4)cc3)[C@H](c3ccccc3)C[C@@H](O)[C@@]21O (racemic) | < 6.00 | < 6.00 | < 6.00 | – | – | – |
| COc1cc(OC)c2c(c1)O[C@@]1(c3ccc(OCCN(C)C)cc3)[C@H](c3ccccc3)C[C@@H](O)[C@@]21O (racemic) | < 6.00 | < 6.00 | < 6.00 | – | – | – |
| COc1cc(OC)c2c(c1)O[C@@]1(c3ccc(OCCCCCN4CCN(C)CC4)cc3)[C@H](c3ccccc3)C[C@@H](O)[C@@]21O (racemic; form 1) | – | 6.26 | – | 6.64 | 8900 µg/mL (≈ 15.1 mM) | 6.96 |
| CCN(CC)Cc1cc([C@@]23Oc4cc(OC)cc(OC)c4[C@]2(O)[C@H](O)C[C@H]3c2ccccc2)ccc1O (racemic) | < 6.00 | < 6.00 | < 6.00 | – | – | – |
| COc1cc(OC)c2c(c1)O[C@@]1(c3ccc(O)c(CN4CCCCC4)c3)[C@H](c3ccccc3)C[C@@H](O)[C@@]21O (racemic) | < 6.00 | < 6.00 | < 6.00 | – | – | – |
| COc1cc(OC)c2c(c1)O[C@@]1(c3ccc(OCCN4CCOCC4)cc3)[C@H](c3ccccc3)C[C@@H](O)[C@@]21O (racemic) | < 6.00 | < 6.00 | < 6.00 | – | – | – |
| CCN(CC)CCOc1ccc([C@@]23Oc4cc(OC)cc(OC)c4[C@]2(O)[C@H](O)C[C@H]3c2ccccc2)cc1 (racemic) | < 6.00 | < 6.00 | < 6.00 | – | – | – |
| COc1cc(OC)c2c(c1)O[C@@]1(c3ccc(O)c(CN4CCOCC4)c3)[C@H](c3ccccc3)C[C@@H](O)[C@@]21O (racemic) | 6.31 | < 6.00 | < 6.00 | – | – | – |
| COc1cc(OC)c2c(c1)O[C@@]1(c3ccc(OCCCCn4ccnc4)cc3)[C@H](c3ccccc3)C[C@@H](O)[C@@]21O (racemic) | 6.25 | < 6.00 | 6.19 | – | – | – |
| COc1cc(OC)c2c(c1)O[C@@]1(c3ccc(OCCCCCCCCN(C)C)cc3)[C@H](c3ccccc3)C[C@@H](O)[C@@]21O (racemic) | 6.66 | < 6.00 | 6.68 | – | – | – |
| COc1cc(OC)c2c(c1)O[C@@]1(c3ccc(OCCCCCn4ccnc4)cc3)[C@H](c3ccccc3)C[C@@H](O)[C@@]21O (racemic) | 6.51 | 6.06 | 6.49 | – | – | – |
| COc1cc(OC)c2c(c1)O[C@@]1(c3ccc(OCCn4cnc5ccccc54)cc3)[C@H](c3ccccc3)C[C@@H](O)[C@@]21O (racemic) | < 6.00 | < 6.00 | < 6.00 | – | – | – |
